For test [1], the system named is E. coli ATCC 25922 (NB27001). Nature of the test: MIC, broth microdilution (CLSI). The test is classed as cell-based. The conditions noted are these: Escherichia coli, ATCC25922; E. coli ATCC 25922; 35° C., 20 hours; read-out: Antibacterial activity (MIC) NB27001. On the technique in general: Broth dilution looks for growth in wells or tubes with falling amounts of substance.

The target in test [2] is E. coli DNA gyrase (GyrA-B) (Escherichia coli, UniProt P0AES4). The test can be described thus: Supercoiling assay of E. coli gyrase. The test is classed as biochemical. The method, then:
Method 1: Supercoiling Assay of E. Coli Gyrase
Enzymatic activity of E. coli DNA gyrase reconstituted from its purified subunits was assessed by monitoring the introduction of supercoils into the relaxed plasmid pHOT-1 (TopoGEN, TG2035-3). To form the functional gyrase A2B2 heterotetrameric enzyme, equal molar concentrations of the GyrA and GyrB subunits were combined at high protein concentration (500 nM) and incubated on ice for 1 hour prior to assay start in reaction buffer without ATP or the pHOT-1 plasmid. The reaction mixture (25 μl) contained 10 nM enzyme, 10 ng/μl pHOT-1, 1 mM ATP, 35 mM Tris-HCl pH 7.5, 24 mM KCl, 4 mM MgCl2, 2 mM DTT, 1.8 mM spermidine, 6.5% glycerol, and 100 μg/ml bovine serum albumin. The reaction was carried out at 37° C. for 90 minutes and terminated by the addition of 2.5 μl of 10× stop solution (0.9% SDS, 50% glycerol, 0.05% bromophenol blue). […] Gels were stained with ethidium bromide (0.5 μg/ml) for 30 minutes and destained in water for 20 minutes. All gels were analyzed using the BIO-RAD ChemiDocTm XRS+ with Image Lab 3.0 software. The 50% inhibition concentration (IC50) was determined as being the compound concentration at which the supercoiled band was reduced by 50% from the DMSO drug free control (Microsoft Excel 2010 IDBS XLfit, GraftPad Prism 6).

For test [3], the system named is S. aureus NB01006-AVR005 (gyrA S84L, grlA S80F, grlB E471K). The test can be described thus: microbe, parasite or virus in culture. It counts as cell-based. The conditions noted are these: Staphylococcus aureus, 20 h, read-out: Antibacterial activity (MIC) NB01006-AVR005.
For test [4], the system named is P. aeruginosa NB52019 (wild-type PAO1). The test can be described thus: MIC, broth microdilution (CLSI). It counts as cell-based. The conditions noted are these: Pseudomonas aeruginosa, read-out: Antibacterial activity (MIC) NB52019.
In test [5] the target is E. coli DNA topoisomerase IV (Topo IV, ParC-E) (Escherichia coli, UniProt P0AFI2). Nature of the test: Decatenation assay of E. coli Topo IV. It counts as biochemical. The method, then:
Method 2: Decatenation Assay of E. Coli Topo IV
Enzymatic activity of the E. coli DNA topoisomerase IV (Topo IV) reconstituted from its purified subunits was monitored by the decatenation of kinetoplast DNA into minicircles (kDNA, TopoGEN, TG2013-3). To form the functional Topo IV C2E2 heterotetrameric enzyme, equal molar concentrations of the ParC and ParE subunits were combined at high protein concentration (500 nM) and incubated on ice for 1 hour prior to assay start in reaction buffer without ATP or the kDNA. […] The reaction was carried out at 37° C. for 2 hours and terminated by the addition of 2.5 μl of 10× stop solution (0.9% SDS, 50% glycerol, 0.05% bromophenol blue). […] Gels were stained with ethidium bromide (0.5 μg/ml) for 30 minutes and distained in water for 20 minutes. All gels were analyzed using the BIO-RAD ChemiDoc™ XRS^+ with Image Lab 3.0 software. The 50% inhibitor concentration (IC50) was determined as being the compound concentration at which the presence of the kDNA minicircles in the gel was reduced by 50% from the DMSO drug free control (Microsoft Excel 2010 IDBS XLfit, Graph Pad Prism 6).

The subject of test [6] is P. aeruginosa NB52023-CDK0006 (gyrA T83I, parC S87L). The test can be described thus: microbe, parasite or virus in culture. The test is classed as cell-based. As to conditions: Pseudomonas aeruginosa, 20 h, read-out: Antibacterial activity (MIC) NB52023-CDK0006.
Test [7] has as its system E. coli NB27177 (efflux deficient CGSC 11430, ΔtolC732::kan). Nature of the test: microbe, parasite or virus in culture. The test is classed as cell-based. The conditions noted are these: Escherichia coli, 20 h, read-out: Antibacterial activity (MIC) NB27177.
Test [8] deals with S. aureus ATCC 29213 (NB01001). Nature of the test: MIC, broth microdilution (CLSI). The test is classed as cell-based. As to conditions: Staphylococcus aureus, ATCC29213; S. aureus ATCC 29213; 35° C., 20 hours; read-out: Antibacterial activity (MIC) NB01001.
Test [9] has as its system P. aeruginosa NB52023 (efflux deficient K1542, ΔmexX ΔmexB). Nature of the test: microbe, parasite or virus in culture. The test is classed as cell-based. As to conditions: Pseudomonas aeruginosa, 20 h, read-out: Antibacterial activity (MIC) NB52023.
The mark [10] stands for this setting: supercoiling activity of E. coli gyrase (GyrA-B), read-out: GyrA-B IC50 (Enzyme).
Where [11] appears, read: decatenation activity of E. coli topoIV (ParC-E), read-out: ParC-E IC50 (Enzyme).
The mark [12] stands for this setting: P. aeruginosa wild-type PAO1, 35° C., 20 hours.

Values after ≈ are worked out from the molar mass of the structure shown. Where a name gives a salt, the structure may show the parent alone. Read-outs that look alike come from different tables or passages of the source.

E. coli DNA topoisomerase IV (Topo IV, ParC-E), sequence (P0AFI2 whole entry): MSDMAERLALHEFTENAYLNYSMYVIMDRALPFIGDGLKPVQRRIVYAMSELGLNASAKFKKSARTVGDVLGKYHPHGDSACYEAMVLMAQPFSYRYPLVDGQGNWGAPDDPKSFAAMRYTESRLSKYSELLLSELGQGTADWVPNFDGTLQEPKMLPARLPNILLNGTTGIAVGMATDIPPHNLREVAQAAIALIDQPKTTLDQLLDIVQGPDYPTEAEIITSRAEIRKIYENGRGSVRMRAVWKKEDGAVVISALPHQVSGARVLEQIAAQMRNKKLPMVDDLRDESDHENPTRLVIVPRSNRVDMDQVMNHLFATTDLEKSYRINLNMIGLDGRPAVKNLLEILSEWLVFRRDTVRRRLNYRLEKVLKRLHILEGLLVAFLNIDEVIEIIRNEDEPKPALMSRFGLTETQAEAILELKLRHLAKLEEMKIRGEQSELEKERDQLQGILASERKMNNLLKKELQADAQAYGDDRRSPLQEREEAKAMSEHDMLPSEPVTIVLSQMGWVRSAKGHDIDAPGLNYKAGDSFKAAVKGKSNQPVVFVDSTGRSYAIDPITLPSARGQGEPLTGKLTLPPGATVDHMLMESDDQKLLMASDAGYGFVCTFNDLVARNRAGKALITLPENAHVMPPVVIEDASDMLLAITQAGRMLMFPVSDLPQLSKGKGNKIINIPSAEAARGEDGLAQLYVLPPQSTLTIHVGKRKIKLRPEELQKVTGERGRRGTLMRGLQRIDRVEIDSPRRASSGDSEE
E. coli DNA topoisomerase IV (Topo IV, ParC-E), sequence (P20083 whole entry, further chain): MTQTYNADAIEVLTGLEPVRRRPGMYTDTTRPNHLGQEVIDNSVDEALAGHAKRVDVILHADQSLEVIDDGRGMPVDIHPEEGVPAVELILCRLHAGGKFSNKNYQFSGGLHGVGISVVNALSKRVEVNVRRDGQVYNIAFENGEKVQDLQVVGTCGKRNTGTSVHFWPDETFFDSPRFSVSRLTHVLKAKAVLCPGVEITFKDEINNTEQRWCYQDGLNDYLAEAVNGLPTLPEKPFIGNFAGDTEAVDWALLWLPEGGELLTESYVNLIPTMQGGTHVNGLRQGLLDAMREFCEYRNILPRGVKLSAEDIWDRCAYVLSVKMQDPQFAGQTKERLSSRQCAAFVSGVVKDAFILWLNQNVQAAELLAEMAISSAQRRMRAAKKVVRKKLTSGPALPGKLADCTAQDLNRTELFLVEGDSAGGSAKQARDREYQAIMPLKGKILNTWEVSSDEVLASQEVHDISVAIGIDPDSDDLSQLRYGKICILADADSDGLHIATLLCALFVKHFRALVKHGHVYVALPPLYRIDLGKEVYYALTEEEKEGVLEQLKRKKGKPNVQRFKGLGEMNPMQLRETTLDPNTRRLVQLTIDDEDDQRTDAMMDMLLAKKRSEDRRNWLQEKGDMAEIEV
E. coli DNA gyrase (GyrA-B), sequence (P0AES4 whole entry): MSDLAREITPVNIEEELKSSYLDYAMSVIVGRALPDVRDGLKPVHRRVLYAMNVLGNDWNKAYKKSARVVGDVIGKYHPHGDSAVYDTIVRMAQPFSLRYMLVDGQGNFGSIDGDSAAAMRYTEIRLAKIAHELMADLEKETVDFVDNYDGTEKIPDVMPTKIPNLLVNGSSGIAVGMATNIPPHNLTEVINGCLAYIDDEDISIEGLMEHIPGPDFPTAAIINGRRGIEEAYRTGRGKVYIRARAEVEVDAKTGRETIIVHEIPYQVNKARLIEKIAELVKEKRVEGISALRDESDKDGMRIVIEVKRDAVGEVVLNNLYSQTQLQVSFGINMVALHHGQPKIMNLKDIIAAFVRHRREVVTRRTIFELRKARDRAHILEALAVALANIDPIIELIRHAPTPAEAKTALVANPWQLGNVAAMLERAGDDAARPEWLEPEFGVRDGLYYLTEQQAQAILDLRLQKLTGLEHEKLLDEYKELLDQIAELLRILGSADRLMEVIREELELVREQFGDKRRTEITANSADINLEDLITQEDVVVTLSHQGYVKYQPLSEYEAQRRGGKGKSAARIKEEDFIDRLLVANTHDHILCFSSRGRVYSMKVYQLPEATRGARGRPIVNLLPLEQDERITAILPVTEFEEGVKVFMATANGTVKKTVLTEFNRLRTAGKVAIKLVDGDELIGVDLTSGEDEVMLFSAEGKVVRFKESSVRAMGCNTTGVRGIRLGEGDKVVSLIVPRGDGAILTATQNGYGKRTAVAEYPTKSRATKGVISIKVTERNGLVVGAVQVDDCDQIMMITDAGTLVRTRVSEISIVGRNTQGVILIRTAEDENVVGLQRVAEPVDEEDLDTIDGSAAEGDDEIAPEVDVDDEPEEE

As a reminder, the IC50 is the midpoint of a concentration-inhibition curve. For the compound `Cc1c(N2CC[C@@H]([C@H](C)N)C2)ccc2ccc(=O)n(C3CC3)c12` [Example 76, 7-((R)-3-((S)-1-aminoethyl)pyrrolidin-1-yl)-1-cyclopropyl-8-methylquinolin-2(1H)-one trifluoroacetic acid salt], the MIC in test [1] worked out at 4 µg/mL; in test [3], 0.5 µg/mL; in [4] (PAO1, 20 h) it was 32 µg/mL; in [6] it was 16 µg/mL; in test [7], 0.125 µg/mL; in test [8], 0.25 µg/mL. The MIC in test [9] worked out at 8 µg/mL. The IC50 in test [2] (setting [10]) worked out at 6.8 µM; in [5] (setting [11]), 38.5 µM.
Turning to `Cc1c(N2CC[C@@H]([C@H](C)N)C2)ccc2c(OCCN(C)C)cc(=O)n(C3CC3)c12` [Example 74, 7-((R)-3-((S)-1-aminoethyl)pyrrolidin-1-yl)-1-cyclopropyl-4-(2-(dimethylamino)ethoxy)-8-methylquinolin-2(1H)-one TFA salt], the MIC is 8 µg/mL in [1]; 2 µg/mL in [3]; 32 µg/mL in [4] (PAO1, 20 h); 16 µg/mL in [6]; 0.25 µg/mL in test [7]; 1 µg/mL in test [8]. Moreover, the MIC in [9] turned out to be 8 µg/mL. In addition, the IC50 in test [2] (setting [10]) stood at 0.31 µM; in test [5] (setting [11]), 0.24 µM.
Regarding `Cc1c(N2CC[C@@H]([C@H](C)N)C2)c(F)cc2c(CN)cc(=O)n(C3CC3)c12` [Example 45, 7-((R)-3-((S)-1-aminoethyl)pyrrolidin-1-yl)-4-(aminomethyl)-1-cyclopropyl-6-fluoro-8-methylquinolin-2(1H)-one], the MIC was 1 µg/mL (≈ 2.79 µM) in test [1]; 0.5 µg/mL (≈ 1.39 µM) in test [3]; 2 µg/mL (≈ 5.58 µM) in test [4] (PAO1, 20 h); 2 µg/mL (≈ 5.58 µM) in [6]; 0.06 µg/mL (≈ 0.167 µM) in test [7]; 0.25 µg/mL (≈ 0.697 µM) in test [8]. In addition, the MIC in [9] was found to be 0.5 µg/mL (≈ 1.39 µM). Also, the IC50 is below 0.1 µM in [2] (setting [10]) and 0.24 µM in [5] (setting [11]).
Regarding `Cc1c(N2CC[C@H](N)C2)c(F)cc2c(C#N)cc(=O)n(C3CC3)c12` [Example 30, (S)-7-(3-aminopyrrolidin-1-yl)-1-cyclopropyl-6-fluoro-8-methyl-2-oxo-1,2-dihydroquinoline-4-carbonitrile], the MIC in [1] was 1 µg/mL (≈ 3.06 µM); in test [3] it was 0.5 µg/mL (≈ 1.53 µM); in [4] (PAO1, 20 h), 8 µg/mL (≈ 24.5 µM); in [6] it was 4 µg/mL (≈ 12.3 µM); in test [7], below 0.03 µg/mL; in [8], 0.5 µg/mL (≈ 1.53 µM). Besides, the MIC in test [9] was found to be 1 µg/mL (≈ 3.06 µM). Moreover, the IC50 in test [2] (setting [10]) is 0.98 µM; in test [5] (setting [11]) it was 14.6 µM.
Regarding `Cc1c(N2CC[C@@H]([C@H](C)N)C2)c(F)cc2ccc(=O)n(C3CC3)c12.Cl` [Example 9.1, 7-((R)-3-((S)-1-aminoethyl)pyrrolidin-1-yl)-1-cyclopropyl-6-fluoro-8-methylquinolin-2(1H)-one hydrochloride salt], the MIC in [1] was 1 µg/mL; in test [3], 0.06 µg/mL; in [4] (setting [12]), 16 µg/mL; in test [6], 8 µg/mL; in [7], below 0.03 µg/mL; in test [8] it was 0.06 µg/mL. Moreover, the MIC in test [9] was found to be 4 µg/mL. Also, the IC50 is 1.3 µM in [2] and 9.91 µM in test [5].
On to `Cc1c(N2CC[C@@H]([C@H](C)N)C2)c(F)cc2c(C#N)cc(=O)n(C3CC3)c12` [Example 27, 7-((R)-3-((S)-1-aminoethyl)pyrrolidin-1-yl)-1-cyclopropyl-6-fluoro-8-methyl-2-oxo-1,2-dihydroquinoline-4-carbonitrile], for which the MIC in test [1] is 1 µg/mL (≈ 2.82 µM); in [3], below 0.03 µg/mL; in [4] (PAO1, 20 h), 4 µg/mL (≈ 11.3 µM); in test [6] it was 2 µg/mL (≈ 5.64 µM); in test [7] it was below 0.03 µg/mL; in [8] it was below 0.03 µg/mL. The MIC in test [9] turned out to be 1 µg/mL (≈ 2.82 µM). Moreover, the IC50 in test [2] (setting [10]) was 0.13 µM; in test [5] (setting [11]) it was 0.59 µM.
Take `C#Cc1cc(=O)n(C2CC2)c2c(C)c(N3CC[C@@H]([C@H](C)N)C3)c(F)cc12` [Example 25, 7-((R)-3-((S)-1-aminoethyl)pyrrolidin-1-yl)-1-cyclopropyl-4-ethynyl-6-fluoro-8-methylquinolin-2(1H)-one]: the MIC in [1] is 4 µg/mL (≈ 11.3 µM); in test [3], below 0.03 µg/mL; in [4] (PAO1, 20 h), 8 µg/mL (≈ 22.6 µM); in [6], 4 µg/mL (≈ 11.3 µM); in test [7], 0.06 µg/mL (≈ 0.17 µM); in test [8], 0.06 µg/mL (≈ 0.17 µM). Besides, the MIC in test [9] was found to be 2 µg/mL (≈ 5.66 µM). Further, the IC50 in [2] (setting [10]) is 1.03 µM; in test [5] (setting [11]), 6.46 µM.
Regarding `Cc1c(N2CCNCC2)c(F)cc2ccc(=O)n(C3CC3)c12` [Example 9.3, 1-Cyclopropyl-6-fluoro-8-methyl-7-(piperazin-1-yl)quinolin-2(1H)-one], the MIC turned out to be 4 µg/mL (≈ 13.3 µM) in test [1]; 16 µg/mL (≈ 53.1 µM) in test [3]; 32 µg/mL (≈ 106 µM) in [4] (setting [12]); 16 µg/mL (≈ 53.1 µM) in [6]; 0.25 µg/mL (≈ 0.83 µM) in [7]; 16 µg/mL (≈ 53.1 µM) in [8]. In test [9], the MIC was 16 µg/mL (≈ 53.1 µM). In addition, the IC50 is 11.9 µM in [2] and above 100 µM in [5].
As to `Cc1c(N2CC[C@@H]([C@H](C)N)C2)c(F)cc2c(-c3n[nH]c(=O)o3)cc(=O)n(C3CC3)c12` [Example 42, 5-(7-((R)-3-((S)-1-aminoethyl)pyrrolidin-1-yl)-1-cyclopropyl-6-fluoro-8-methyl-2-oxo-1,2-dihydroquinolin-4-yl)-1,3,4-oxadiazol-2(3H)-one], the MIC is 8 µg/mL (≈ 19.3 µM) in [1]; 0.5 µg/mL (≈ 1.21 µM) in test [3]; above 32 µg/mL in test [4] (PAO1, 20 h); 32 µg/mL (≈ 77.4 µM) in test [6]; 0.25 µg/mL (≈ 0.605 µM) in test [7]; 0.5 µg/mL (≈ 1.21 µM) in test [8]. The MIC in test [9] was 8 µg/mL (≈ 19.3 µM). Also, the IC50 in test [2] (setting [10]) is 0.83 µM; in test [5] (setting [11]), 1.86 µM.
Take `Cc1c(N2CC[C@@H]([C@H](C)N)C2)c(F)cc2c(C(N)=O)cc(=O)n(C3CC3)c12` [Example 34, 7-((R)-3-((S)-1-aminoethyl)pyrrolidin-1-yl)-1-cyclopropyl-6-fluoro-8-methyl-2-oxo-1,2-dihydroquinoline-4-carboxamide]: the MIC is 32 µg/mL (≈ 85.9 µM) in test [1]; 4 µg/mL (≈ 10.7 µM) in test [3]; above 32 µg/mL in [4] (PAO1, 20 h); 16 µg/mL (≈ 43 µM) in test [6]; 2 µg/mL (≈ 5.37 µM) in test [7]; 4 µg/mL (≈ 10.7 µM) in [8]. Further, the MIC in test [9] was 16 µg/mL (≈ 43 µM). Moreover, the 50% inhibitory concentration (IC50) is 0.44 µM in [2] (setting [10]) and 5.14 µM in test [5] (setting [11]).
For the compound `Cc1c(N2CC[C@@H]([C@H](C)N)C2)c(F)cc2c(C(=O)NO)cc(=O)n(C3CC3)c12` [Example 43, 7-((R)-3-((S)-1-aminoethyl)pyrrolidin-1-yl)-1-cyclopropyl-6-fluoro-N-hydroxy-8-methyl-2-oxo-1,2-dihydroquinoline-4-carboxamide], the MIC in test [1] was 32 µg/mL (≈ 82.4 µM); in test [3] it was 16 µg/mL (≈ 41.2 µM); in test [4] (PAO1, 20 h), above 32 µg/mL; in [6], above 32 µg/mL; in [7] it was 4 µg/mL (≈ 10.3 µM); in test [8], 8 µg/mL (≈ 20.6 µM). Moreover, the MIC in [9] was above 32 µg/mL. Moreover, the IC50 in [2] (setting [10]) was 0.56 µM; in test [5] (setting [11]) it was 3.35 µM.

The values are drawn from patent publication US10160726B2, “Quinolone derivatives as antibacterials” (priority 2014, dated 2018).
